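Growth conditions: 96-well plates. Treatment: test compound, 48 hours, 5 concentrations. Analysis: linear interpolation between bracketing concentrations; unreached endpoints set to highest concentration. The concentration for 50% growth inhibition is given as GI50. TGI: concentration producing complete growth inhibition.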
Legend:
Experiment in all cases: NCI-60 cell line screen, 48 h
[1] = test system: 786-0 renal
[2] = test system: A498 renal
[3] = test system: A549 NSCLC
[4] = test system: ACHN renal
[5] = test system: BT-549 breast
[6] = test system: CAKI-1 renal
[7] = test system: CCRF-CEM leukemia
[8] = test system: COLO 205 colon
[9] = test system: DU-145 prostate
[10] = test system: EKVX NSCLC
[11] = test system: HCC-2998 colon
[12] = test system: HCT-116 colon
[13] = test system: HCT-15 colon
[14] = test system: HOP-62 NSCLC
[15] = test system: HT29 colon
[16] = test system: IGROV1 ovarian
[17] = test system: K-562 leukemia
[18] = test system: KM12 colon
[19] = test system: LOX IMVI melanoma
[20] = test system: M14 melanoma
[21] = test system: MALME-3M melanoma
[22] = test system: MCF7 breast
[23] = test system: MDA-MB-231 breast
[24] = test system: MDA-MB-435
[25] = test system: NCI-H226 lung
[26] = test system: NCI-H23 lung
[27] = test system: NCI-H460 lung
[28] = test system: NCI-H522 lung
[29] = test system: NCI/ADR-RES ovarian
[30] = test system: OVCAR-3 ovarian
[31] = test system: OVCAR-4 ovarian
[32] = test system: OVCAR-5 ovarian
[33] = test system: OVCAR-8 ovarian
[34] = test system: PC-3 prostate
[35] = test system: RPMI-8226 leukemia
[36] = test system: RXF 393 renal
[37] = test system: SF-268 CNS
[38] = test system: SF-295 CNS
[39] = test system: SF-539 CNS
[40] = test system: SK-MEL-2 melanoma
[41] = test system: SK-MEL-28 melanoma
[42] = test system: SK-MEL-5 melanoma
[43] = test system: SK-OV-3 ovarian
[44] = test system: SN12C renal
[45] = test system: SNB-19 CNS
[46] = test system: SNB-75 CNS
[47] = test system: SR leukemia
[48] = test system: SW-620 colon
[49] = test system: T-47D breast
[50] = test system: TK-10 renal
[51] = test system: U251 CNS
[52] = test system: UACC-257 melanoma
[53] = test system: UACC-62 melanoma
[54] = test system: UO-31 renal
[55] = test system: HOP-92 NSCLC
[56] = test system: HS 578T breast

CNCc1ccccc1-c1csc([C@@H](C)Nc2nc(C)nc3cc(OC)c(OC)cc23)c1
GI50 [1]: 1.52 µM | TGI [1]: 2.87 µM | GI50 [2]: 0.289 µM | TGI [2]: 1.92 µM | GI50 [3]: 1.94 µM | TGI [3]: 5.73 µM | GI50 [4]: 1.33 µM | TGI [4]: 2.62 µM | GI50 [5]: 1.76 µM | TGI [5]: 3.55 µM | GI50 [6]: 1.28 µM | TGI [6]: 2.55 µM | GI50 [7]: 2.26 µM | TGI [7]: 5.3 µM | GI50 [8]: 1.77 µM | TGI [8]: 3.59 µM | GI50 [9]: 4.59 µM | TGI [9]: 15.6 µM | GI50 [10]: 1.61 µM | TGI [10]: 12.9 µM | GI50 [11]: 1.43 µM | TGI [11]: 2.9 µM | GI50 [12]: 1.71 µM | TGI [12]: 3.41 µM | GI50 [13]: 1.61 µM | TGI [13]: 3.55 µM | GI50 [14]: 1.43 µM | TGI [14]: 12.3 µM | GI50 [15]: 1.71 µM | TGI [15]: 4.33 µM | GI50 [16]: 1.4 µM | TGI [16]: 5.23 µM | GI50 [17]: 0.168 µM | TGI [17]: 1.57 µM | GI50 [18]: 3.27 µM | TGI [18]: 11.9 µM | GI50 [19]: 1.57 µM | TGI [19]: 2.98 µM | GI50 [20]: 1.79 µM | TGI [20]: 3.35 µM | GI50 [21]: 1.76 µM | TGI [21]: 3.28 µM | GI50 [22]: 1.44 µM | TGI [22]: 3.19 µM | GI50 [23]: 1.85 µM | TGI [23]: 3.78 µM | GI50 [24]: 1.75 µM | TGI [24]: 3.2 µM | GI50 [25]: 13.6 µM | TGI [25]: 32.7 µM | GI50 [26]: 2.83 µM | TGI [26]: 15.5 µM | GI50 [27]: 2.03 µM | TGI [27]: 4.16 µM | GI50 [28]: 1.54 µM | TGI [28]: 3.64 µM | GI50 [29]: 2.01 µM | TGI [29]: 4.68 µM | GI50 [30]: 2.42 µM | TGI [30]: 8.04 µM | GI50 [31]: 2.4 µM | TGI [31]: 10.7 µM | GI50 [32]: 3.29 µM | TGI [32]: 13.6 µM | GI50 [33]: 2.29 µM | TGI [33]: 7.65 µM | GI50 [34]: 4.01 µM | TGI [34]: 12.3 µM | GI50 [35]: 1.77 µM | TGI [35]: 4.3 µM | GI50 [36]: 1.31 µM | TGI [36]: 2.84 µM | GI50 [37]: 2.66 µM | TGI [37]: 12.4 µM | GI50 [38]: 1.45 µM | TGI [38]: 2.88 µM | GI50 [39]: 1.5 µM | TGI [39]: 2.94 µM | GI50 [40]: 1.87 µM | TGI [40]: 3.69 µM | GI50 [41]: 1.95 µM | TGI [41]: 3.53 µM | GI50 [42]: 1.72 µM | TGI [42]: 3.09 µM | GI50 [43]: 4.67 µM | TGI [43]: 18.8 µM | GI50 [44]: 1.48 µM | TGI [44]: 5.02 µM | GI50 [45]: 1.84 µM | TGI [45]: 6.69 µM | GI50 [46]: 1.33 µM | TGI [46]: 2.65 µM | GI50 [47]: 0.624 µM | TGI [47]: 2.38 µM | GI50 [48]: 1.49 µM | TGI [48]: 3.44 µM | GI50 [49]: 1.85 µM | TGI [49]: 4.1 µM | GI50 [50]: 1.09 µM | TGI [50]: 2.52 µM | GI50 [51]: 1.48 µM | TGI [51]: 3 µM | GI50 [52]: 1.82 µM | TGI [52]: 3.51 µM | GI50 [53]: 1.84 µM | TGI [53]: 3.43 µM | GI50 [54]: 1.23 µM | TGI [54]: 2.48 µM

COc1cc(/C=C/C(=O)c2ccc(O)c(OC)c2)ccc1O
TGI [8]: 41.2 µM | TGI [10]: 41.6 µM | TGI [55]: 50.7 µM | TGI [56]: 60.3 µM | TGI [21]: 51.4 µM | TGI [23]: 79.4 µM | TGI [25]: 46.3 µM | TGI [28]: 32.3 µM | TGI [30]: 72 µM | TGI [31]: 71.4 µM | TGI [32]: 50.8 µM | TGI [38]: 49 µM | TGI [40]: 42.6 µM | TGI [41]: 36.5 µM | TGI [43]: 93.4 µM | TGI [46]: 77.5 µM | TGI [49]: 58.7 µM | TGI [50]: 87.9 µM | TGI [52]: 45.9 µM

— PubChem BioAssay (NCI)
